Measurements published in patent US20240425479A1, “HALO-SUBSTITUTED AMINO AZA-HETEROARYL COMPOUNDS AS INHIBITORS OF THE HAEMATOPOIETIC PROGENITOR KINASE 1 (HPK1)” (priority 2021, published 2024).

Target: T1, Recombinant (1-346) HPK1 (h) (Homo sapiens, UniProt Q92918)
T1 construct: Recombinant (1-346) HPK1 (h) is incubated with 8 mM MOPS pH 7.0
T1 sequence (Q92918 1-346): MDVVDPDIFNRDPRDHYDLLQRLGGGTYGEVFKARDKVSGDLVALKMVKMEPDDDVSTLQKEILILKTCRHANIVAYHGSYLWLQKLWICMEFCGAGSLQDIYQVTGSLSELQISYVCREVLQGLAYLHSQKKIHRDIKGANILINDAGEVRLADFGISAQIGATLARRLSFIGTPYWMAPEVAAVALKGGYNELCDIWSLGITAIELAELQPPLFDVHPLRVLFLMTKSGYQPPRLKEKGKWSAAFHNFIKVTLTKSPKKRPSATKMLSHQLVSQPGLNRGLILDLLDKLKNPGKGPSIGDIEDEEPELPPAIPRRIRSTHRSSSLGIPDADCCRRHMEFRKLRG
Assay: HPK1 human STE kinase enzymatic radiometric assay
Type: biochemical
Details: read-out: HPK1 IC50 nM Range
How it was run: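 Recombinant HPK1 (1-346) incubated 40 min at RT with 0.33 mg/mL myelin basic protein and [gamma-33P]-ATP in 8 mM MOPS pH 7.0, 0.2 mM EDTA, 10 mM Mg acetate; reaction started with Mg/ATP. Stopped with 0.5% phosphoric acid, spotted on P30 filtermat, washed, scintillation counted. Compounds tested as 9-point 3-fold dilutions.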

Row | Structure (SMILES) | IC50 [nM]
1 | Cc1c[nH]c(=O)c2c(F)cc(-c3nc(-c4ccc(N5CCN(C(C)C)CC5)cc4)c(F)nc3N)cc12 [Example I-166, 6-(3-amino-5-fluoro-6-(4-(4-isopropylpiperazin-1-yl)phenyl)pyrazin-2-yl)-8-fluoro-4-methylisoquinolin-1(2H)-one] | 0.1 to 10
2 | Cc1c[nH]c(=O)c2ccc(-c3nc(-c4ccc(C5CCOCC5)cc4)c(F)nc3N)cc12 [Example I-181, 6-(3-amino-5-fluoro-6-(4-(tetrahydro-2H-pyran-4-yl)phenyl)pyrazin-2-yl)-4-methylisoquinolin-1(2H)-one] | 0.1 to 10
3 | Cc1c[nH]c(=O)c2ccc(-c3nc(-c4ccc(N5CCN(CCC(F)F)CC5)cc4)c(F)nc3N)cc12 [Example I-87, 6-(3-amino-6-(4-(4-(3,3-difluoropropyl)piperazin-1-yl)phenyl)-5-fluoropyrazin-2-yl)-4-methylisoquinolin-1(2H)-one] | > 1000
4 | Nc1nc(F)c(-c2ccc(N3CCN(C4COC4)CC3)cc2)nc1-c1cc2c(cc1F)C(=O)NCC2 [Example I-45, 6-(3-amino-5-fluoro-6-(4-(4-(oxetan-3-yl)piperazin-1-yl)phenyl)pyrazin-2-yl)-7-fluoro-3,4-dihydroisoquinolin-1(2H)-one] | 11 to 100
5 | Nc1nc(F)c(-c2ccc(C3CCOCC3)c(CN3CCC3)c2)nc1-c1ccc2c(c1)CCNC2=O [Example I-169, 6-(3-amino-6-(3-(azetidin-1-ylmethyl)-4-(tetrahydro-2H-pyran-4-yl)phenyl)-5-fluoropyrazin-2-yl)-3,4-dihydroisoquinolin-1(2H)-one] | 0.1 to 10
6 | Nc1nc(F)c(-c2ccc(N3CCN(CCCC(F)F)CC3)cc2)nc1-c1ccc2c(=O)[nH]ccc2c1 [Example I-70, 6-(3-amino-6-(4-(4-(4,4-difluorobutyl)piperazin-1-yl)phenyl)-5-fluoropyrazin-2-yl)isoquinolin-1(2H)-one] | 0.1 to 10
7 | Cc1nc2cc(-c3nc(-c4ccc(N5CCN(CCCC(F)F)CC5)cc4)c(F)nc3N)ccc2c(=O)[nH]1 [Example I-81, 7-(3-amino-6-(4-(4-(4,4-difluorobutyl)piperazin-1-yl)phenyl)-5-fluoropyrazin-2-yl)-2-methylquinazolin-4(3H)-one] | 11 to 100
8 | Cc1c[nH]c(=O)c2ccc(-c3nc(-c4ccc([C@]56C[C@H]5CN(C)C6)cc4)c(F)nc3N)cc12 [Example I-75, 6-(3-amino-5-fluoro-6-(4-((1S,5R)-3-methyl-3-azabicyclo[3.1.0]hexan-1-yl)phenyl)pyrazin-2-yl)-4-methylisoquinolin-1(2H)-one] | 11 to 100
9 | Nc1nc(F)c(-c2ccc(N3CCOCC3)c(CN3CCC3)c2)nc1-c1ccc2c(=O)[nH]cc(F)c2c1 [Example I-199, 6-(3-amino-6-(3-(azetidin-1-ylmethyl)-4-morpholinophenyl)-5-fluoropyrazin-2-yl)-4-fluoroisoquinolin-1(2H)-one] | 0.1 to 10
10 | CO[C@H]1CCN(Cc2cc(-c3nc(-c4ccc5c(c4)CCNC5=O)c(N)nc3F)ccc2N2CCOCC2)C1 [Example I-156, (S)-6-(3-amino-5-fluoro-6-(3-((3-methoxypyrrolidin-1-yl)methyl)-4-morpholinophenyl)pyrazin-2-yl)-3,4-dihydroisoquinolin-1(2H)-one] | 0.1 to 10
11 | COC1CCN(Cc2cc(-c3nc(-c4ccc5c(c4)CCNC5=O)c(N)nc3F)ccc2C2CCOCC2)CC1 [Example I-131, 6-(3-amino-5-fluoro-6-(3-((4-methoxypiperidin-1-yl)methyl)-4-(tetrahydro-2H-pyran-4-yl)phenyl)pyrazin-2-yl)-3,4-dihydroisoquinolin-1(2H)-one] | 11 to 100
12 | Cc1[nH]c(=O)c2c(F)cc(-c3nc(-c4ccc(N5CCN(C(C)C)CC5)cc4)c(F)nc3N)cc2c1F [Example I-111, 6-(3-amino-5-fluoro-6-(4-(4-isopropylpiperazin-1-yl)phenyl)pyrazin-2-yl)-4,8-difluoro-3-methylisoquinolin-1(2H)-one] | 0.1 to 10
13 | CN(C)Cc1cc(-c2nc(-c3cc4c(cc3F)C(=O)NCC4)c(N)nc2F)ccc1N1CCSCC1 [Example I-129, 6-(3-amino-6-(3-((dimethylamino)methyl)-4-thiomorpholinophenyl)-5-fluoropyrazin-2-yl)-7-fluoro-3,4-dihydroisoquinolin-1(2H)-one] | 0.1 to 10
14 | Cc1cc2cc(-c3nc(-c4ccc(N5CCN(CCCC(F)F)CC5)cc4)c(F)nc3N)cc(F)c2c(=O)[nH]1 [Example I-159, 6-(3-amino-6-(4-(4-(4,4-difluorobutyl)piperazin-1-yl)phenyl)-5-fluoropyrazin-2-yl)-8-fluoro-3-methylisoquinolin-1(2H)-one] | 0.1 to 10
15 | Nc1nc(F)c(-c2ccc(N3CCN(CCCC(F)F)CC3)cc2)nc1-c1cc2c(cc1F)C(=O)NCC2 [Example I-69, 6-(3-amino-6-(4-(4-(4,4-difluorobutyl)piperazin-1-yl)phenyl)-5-fluoropyrazin-2-yl)-7-fluoro-3,4-dihydroisoquinolin-1(2H)-one] | 0.1 to 10
16 | CN(C)Cc1cc(-c2nc(-c3cc4c(cc3F)C(=O)NCC4)c(N)nc2F)ccc1N1CCOCC1 [Example I-65, 6-(3-amino-6-(3-((dimethylamino)methyl)-4-morpholinophenyl)-5-fluoropyrazin-2-yl)-7-fluoro-3,4-dihydroisoquinolin-1(2H)-one] | 0.1 to 10
17 | Cc1[nH]c(=O)c2ccc(-c3nc(-c4ccc(C5CCOCC5)c(CN(C)C)c4)c(F)nc3N)cc2c1Cl [Example I-125, 6-(3-amino-6-(3-((dimethylamino)methyl)-4-(tetrahydro-2H-pyran-4-yl)phenyl)-5-fluoropyrazin-2-yl)-4-chloro-3-methylisoquinolin-1(2H)-one] | 0.1 to 10

More lines, now with the values ahead:

Row | IC50 [nM] | Structure (SMILES)
18 | 11 to 100 | CN(C)Cc1cccc(-c2nc(-c3cc4c(cc3F)C(=O)NCC4)c(N)nc2F)c1 [Example I-278, 6-(3-amino-6-(3-((dimethylamino)methyl)phenyl)-5-fluoropyrazin-2-yl)-7-fluoro-3,4-dihydroisoquinolin-1(2H)-one]
19 | 11 to 100 | CN(C)[C@@H]1CCOc2ccc(-c3nc(-c4cc(F)c5c(c4)CCNC5=O)c(N)nc3F)cc21 [Example I-289, (R)-6-(3-amino-6-(4-(dimethylamino)chroman-6-yl)-5-fluoropyrazin-2-yl)-8-fluoro-3,4-dihydroisoquinolin-1(2H)-one]
20 | 0.1 to 10 | CN(C)[C@@H]1COc2ccc(-c3nc(-c4ccc5c(=O)[nH]cc(Cl)c5c4)c(N)nc3F)cc21 [Example I-252, (S)-6-(3-amino-6-(3-(dimethylamino)-2,3-dihydrobenzofuran-5-yl)-5-fluoropyrazin-2-yl)-4-chloroisoquinolin-1(2H)-one]
21 | 0.1 to 10 | CCN(C)Cc1cc(-c2nc(-c3ccc4c(c3)C(F)(F)CNC4=O)c(N)nc2F)ccc1C1CCOCC1 [Example I-224, 6-(3-amino-6-(3-((ethyl(methyl)amino)methyl)-4-(tetrahydro-2H-pyran-4-yl)phenyl)-5-fluoropyrazin-2-yl)-4,4-difluoro-3,4-dihydroisoquinolin-1(2H)-one]
22 | 11 to 100 | CN(C)Cc1cccc(-c2nc(-c3ccc4c(c3)CCNC4=O)c(N)nc2F)c1 [Example I-277, 6-(3-amino-6-(3-((dimethylamino)methyl)phenyl)-5-fluoropyrazin-2-yl)-3,4-dihydroisoquinolin-1(2H)-one]
23 | 0.1 to 10 | CC(c1cc(-c2nc(-c3ccc4c(=O)[nH]cc(F)c4c3)c(N)nc2F)ccc1O)N(C)C (centres unmarked) [Example I-302, 6-(3-amino-6-(3-(1-(dimethylamino)ethyl)-4-hydroxyphenyl)-5-fluoropyrazin-2-yl)-4-fluoroisoquinolin-1(2H)-one]
24 | 0.1 to 10 | CCN(C)Cc1cc(-c2nc(-c3ccc4c(=O)[nH]cc(C)c4c3)c(N)nc2F)ccc1C1CCOCC1 [Example I-239, 6-(3-amino-6-(3-((ethyl(methyl)amino)methyl)-4-(tetrahydro-2H-pyran-4-yl)phenyl)-5-fluoropyrazin-2-yl)-4-methylisoquinolin-1(2H)-one]
25 | 11 to 100 | C[C@@H]1CCCN1Cc1cc(-c2nc(-c3cc(F)c4c(c3)CCNC4=O)c(N)nc2F)ccc1C1CCOCC1 [Example I-218, (R)-6-(3-amino-5-fluoro-6-(3-((2-methylpyrrolidin-1-yl)methyl)-4-(tetrahydro-2H-pyran-4-yl)phenyl)pyrazin-2-yl)-8-fluoro-3,4-dihydroisoquinolin-1(2H)-one]
26 | 11 to 100 | COc1ccc(-c2nc(-c3ccc4c(c3)CCNC4=O)c(N)nc2F)cc1C#N [Example I-292, 5-(5-amino-3-fluoro-6-(1-oxo-1,2,3,4-tetrahydroisoquinolin-6-yl)pyrazin-2-yl)-2-methoxybenzonitrile]
27 | 0.1 to 10 | Cc1c[nH]c(=O)c2ccc(-c3nc(-c4ccc(N5CCOCC5)c(CN5CCC5)c4)c(F)nc3N)cc12 [Example I-202, 6-(3-amino-6-(3-(azetidin-1-ylmethyl)-4-morpholinophenyl)-5-fluoropyrazin-2-yl)-4-methylisoquinolin-1(2H)-one]
28 | 11 to 100 | Nc1nc(F)c(-c2ccc(N3CCOCC3)cn2)nc1-c1ccc2c(c1)CCNC2=O [Example I-201, 6-(3-amino-5-fluoro-6-(5-morpholinopyridin-2-yl)pyrazin-2-yl)-3,4-dihydroisoquinolin-1(2H)-one]
29 | 11 to 100 | CN(C)Cc1cc(-c2nc(-c3ccc4c(c3)CCNC4=O)c(N)nc2F)cnc1N1CCOCC1 [Example I-237, 6-(3-amino-6-(5-((dimethylamino)methyl)-6-morpholinopyridin-3-yl)-5-fluoropyrazin-2-yl)-3,4-dihydroisoquinolin-1(2H)-one]
